The test system of experiment [1] is Female db/db B6BKS (D) Leprdb/J mice. Put plainly: Fasting blood glucose in db/db mouse model of diabetes, daily oral gavage. In kind it is in vivo. The following applies: for Fasting Blood Glucose (% changes from vehicle control): 6 h fast; for Blood glucose lowering compared with the equivalent dose of metformin (in words): difference not statistically significant. The source says: (§1) The anti-diabetic activity of Met.TZ was examined in a standard mouse model of diabetes, in comparison to the front-line anti-diabetes drug metformin hydrochloride. Female db/db B6BKS (D) Leprdb/J mice of approximately 6.5 to 9.5 weeks old were used for this study. This is a standard genetic model of obesity related insulin resistance and diabetes, and has served as model animal for the development and analysis of many metabolically active drugs.
(§2) Two treatment groups of six female mice were administered Met.TZ (MetX), at dose levels of 44.7 mg/kg/dose or 149 mg/kg/dose. Two treatment groups of six female mice were administered the test sample TZ (X), at dose levels of 21.2 mg/kg/dose or 70.8 mg/kg/dose Two treatment groups of six female mice were administered the positive control article, metformin hydrochloride, at dose levels of 30 mg/kg/dose or 100 mg/kg/dose. One additional group of six mice served as the control and received the test article vehicle, water. All drugs and vehicle solutions were administered daily during the study via oral gavage at a dose volume of 5 mL/kg. Body weights were measured three times per week, at the time of glucose measurements.
(§3) Blood samples for glucose analysis were collected three times per week beginning on Day 1 through Day 26. Animals were fasted for 6 hours prior to glucose testing. On Days 1 through 12, the test article, positive control, and vehicle were administered after completion of the glucose testing. On Days 15 through 24 the dosing occurred approximately 90 minutes prior to glucose testing. On Day 26, a glucose tolerance test (GTT) was performed. The animals were administered a glucose solution at a dose level of 2 g/kg and a dose volume of 5 mL/kg. Blood collection for glucose measurements were collected predose, and at 0.5, 1, 1.5, 2, and 3 hours following administration of the glucose solution.

Experiment [2] has the same test system. The experiment in a line: Oral glucose tolerance test (GTT) on day 26 in db/db mice. Format: in vivo, mouse.
Source text: as §1, §2, §3

The values below come from patent US9815777B2, “Metformin salts to treat Type2 diabetes” (Jiva Pharma, Inc., priority 2013, dated 2017).

SMILES strings stand for the structures. Entries after “also recorded” stand apart in the source; their conditions may differ. Where a name gives a salt, the structure may show the parent alone.

Take `CN(C)C(=N)NC(=N)N.O=C1CSC(=O)N1` [Met.TZ, Metformin thiazolidine-2,4-dione-3-ide]: the “Glucose lowering activity (in words)” value in experiment [1] (149 mg/kg (equivalent to metformin 100 mg/kg), from day 17 until termination of the study) is on record as “striking glucose lowering activity”. For the same molecule, the “Fasting Blood Glucose (% changes from vehicle control)” value in experiment [1] (day 15 of treatment, 149 mg/kg/day oral gavage) is listed as −13%; in experiment [1] (day 17 of treatment, 149 mg/kg/day oral gavage), −51%; in experiment [1] (day 19 of treatment, 149 mg/kg/day oral gavage), −33%; in experiment [1] (day 22 of treatment, 149 mg/kg/day oral gavage), −52%. Also, the “Blood glucose lowering compared with the equivalent dose of metformin (in words)” value in experiment [1] (db/db mice) is “more effective at lowering blood glucose than the equivalent dose of metformin; also recorded: lower glucose more than the equivalent dose of metformin hydrochloride alone”; in experiment [1] (db/db mice, listed as 2,4-thiazolidinedione with metformin as its salt (1:1)), “enhanced the glucose lowering effect of metformin”. For the same molecule, in experiment [2] (P<0.05 by ANOVA, means of 6 animals), the “GTT glucose curve versus control animals (Veh), significance” value is “significantly different than that from control animals”. In experiment [2] (every time point, 149 mg/kg/day vs metformin 100 mg/kg/day, difference not statistically significant), the “Glucose levels post glucose administration compared with the equivalent dose of metformin (in words)” value is on record as “lower glucose levels than animals treated with the equivalent dose of metformin”. Also, the “Glucose tolerance (in words)” value in experiment [2] (glucose 2 g/kg, 149 mg/kg/day) is “striking improvement in glucose tolerance”.
As to `CN(C)C(=N)N=C(N)N` [Metformin, metformin hydrochloride], the “Fasting Blood Glucose (% changes from vehicle control)” value in experiment [1] (day 15 of treatment, 100 mg/kg/day oral gavage) was −9%; in experiment [1] (day 17 of treatment, 100 mg/kg/day oral gavage) it was −34%; in experiment [1] (day 19 of treatment, 100 mg/kg/day oral gavage), −7%; in experiment [1] (day 22 of treatment, 100 mg/kg/day oral gavage), −43%.
With `O=C1CSC(=O)N1` [TZ, 2,4-thiazolidinedione], the “Fasting Blood Glucose (% changes from vehicle control)” value in experiment [1] (day 15 of treatment, 70.8 mg/kg/day oral gavage) is on record as “+34%”; in experiment [1] (day 17 of treatment, 70.8 mg/kg/day oral gavage), −22%; in experiment [1] (day 19 of treatment, 70.8 mg/kg/day oral gavage), “+9%”; in experiment [1] (day 22 of treatment, 70.8 mg/kg/day oral gavage), −19%. Moreover, in experiment [1] (db/db mice, same model), the “Hypoglycemic activity without any metformin (in words)” value was “little effect on glucose lowering”.
